Molecules are shown by their SMILES.

The experiment deals with STAT1 (phosphorylated at Tyr701) in NCI-H1373 cells. The experiment can be described thus: Phospho-STAT1 (Tyr701) LANCE Ultra TR-FRET detection assay in NCI-H1373 cells. In kind it is cell-based. As to conditions: Homo sapiens, NCI-H1373, 48 h, 48 hours incubation, induction of pSTAT1, normalized to 10 uM positive control and DMSO, 4-parameter fit, read-out: NH1373 pSTAT1 EC50. The protocol:
Phospho-STAT1 (Tyr701 LANCE Ultra TR-FRET Detection Assay
LANCE Ultra phospho-STAT1 (Tyr701) kits are designed for the detection of phosphorylated STAT1 in cell lysates using a simple, homogeneous LANCE Ultra sandwich assay (Cat. #TRF4028M). This assay is intended for assessing compound induction of endogenous levels of cellular STAT1 (phosphorylated at Tyr701) in NCI-H1373 cells. The NCI-H1373 cells are cultured in RPMI 1640 media containing 10% heat inactivated FBS, GlutaMAX, 1% Penicillin-Streptomycin. An Echo acoustic liquid handler is used to transfer 60 nanoliters of compound dilutions using the Echo Qualified, 384-well polypropylene microplate clear flat bottom source plates into a Greiner (#781080) cell culture microplate. NCI-H1373 cells are seeded into these compound-spotted culture plates at 30,000 cells/well in a 60 uL volume in growth media. The plates are incubated in a 5% CO2 humidified incubator at 37° C. for 48 hours. […] Briefly, […] of supplemented lysis buffer is added to each well and allowed to shake for 1 hour at 400 rpm. Next, 5 ul of remixed antibody solutions (vol/vol) prepared in detection buffer are added to each well and allowed to incubate at room temperature overnight. After spinning the plate down at 300 rpm for 1 min, the plate is read on an EnVision plate reader set up for Eu^3+ Cryptate and fluorescence emission is measured at two different wavelengths (665 nm and 620 nm). The HTRF ratio is then calculated ([…]) for each well to determine the amount of pSTAT1 in the cell lysate, and the data is then normalized to 10 uM (S)-5-((1-(3-oxo-3-(4-(5-(trifluoromethyl)pyrimidin-2-yl)piperazin-1-yl)propoxy)propan-2-yl)amino)-4-(trifluoromethyl)pyridazin-3(2H)-one positive and DMSO negative controls. The values were then plotted as a function of compound concentration and a 4-parameter fit was applied to derive the EC50 values.
A word on the EC50: it is the concentration giving half of the maximal effect. `C[C@@H](C[C@H](F)Cn1ccc2cc(-c3ncc(C(F)(F)F)cn3)c(F)cc2c1=O)Nc1cn[nH]c(=O)c1C(F)(F)F` (single isomer, unassigned) [Example 3]: the concentration for a half-maximal effect (EC50) was found to be 11.7 nM.

As for `CC(C)(O)c1cnc(-c2cc3ccn(CC(F)CC(COC(F)F)Nc4cn[nH]c(=O)c4C(F)(F)F)c(=O)c3cc2F)nc1` (stereo not shown) [Example 129], the half-maximal effective concentration (EC50) was 8.24 nM.

On to `O=c1[nH]ncc(NC(COC(F)F)C[C@@H](F)Cn2ccc3cc(-c4ncc(C(F)(F)F)cn4)c(F)cc3c2=O)c1C(F)(F)F` (stereo partly drawn) [Example 126, 2-[(2R)-5-(difluoromethoxy)-2-fluoro-4-[[6-oxo-5-(trifluoromethyl)-1H-pyridazin-4-yl]amino]pentyl]-7-fluoro-6-[5-(trifluoromethyl)pyrimidin-2-yl]isoquinolin-1-one], for which the EC50 was determined as 3.3 nM.

In the case of `C[C@@H](C[C@@H](F)Cn1ccc2cc(-c3ncc(C(F)(F)F)cn3)c(F)cc2c1=O)Nc1cn[nH]c(=O)c1C(F)(F)F` [Example 2], the EC50 worked out at 0.947 nM.

Turning to `C[C@@H](C[C@@H](O)Cn1ccc2cc(-c3nc4ccccn4n3)c(F)cc2c1=O)Nc1cn[nH]c(=O)c1C(F)(F)F` (single isomer, unassigned) [Example 22], the EC50 amounted to 2.7 nM.

Consider `C[C@@H](C[C@@H](F)Cn1ccc2cc(-c3cnccn3)c(F)cc2c1=O)Nc1cn[nH]c(=O)c1C(F)(F)F` [Example 104], for which the EC50 was found to be 36.4 nM.

As to `C[C@@H](C[C@@H](F)Cn1ccc2cc(-c3ncc(C(F)F)cn3)c(F)c(F)c2c1=O)Nc1cn[nH]c(=O)c1C(F)(F)F` [Example 100], the concentration for a half-maximal effect (EC50) turned out to be 1.05 nM.

In the case of `C[C@@H](C[C@H](F)Cn1cc(F)c2cc(-c3ncc(C(F)F)c(N)n3)c(F)cc2c1=O)Oc1cn[nH]c(=O)c1C(F)(F)F` [Example 64], the EC50 amounted to 0.42 nM.

Regarding `C[C@@H](C[C@@H](F)Cn1ccc2cc(-c3ncc(C(C)(C)F)cn3)c(F)cc2c1=O)Nc1cn[nH]c(=O)c1C(F)(F)F` [Example 96], the EC50 is 1.61 nM.

As to `CC(C)(O)c1cnc(-c2cc3ccn(CCC[C@H](COC(F)F)Oc4cn[nH]c(=O)c4C(F)(F)F)c(=O)c3cc2F)nc1` (single isomer, unassigned) [Example 35], the EC50 was determined as 20.5 nM.

For the compound `C[C@@H](C[C@H](F)Cn1ccc2cc(-c3ncc(S(C)(=O)=O)cn3)c(F)cc2c1=O)Oc1cn[nH]c(=O)c1C(F)(F)F` [Example 60], the EC50 came out at 10.2 nM.

Regarding `C[C@@H](C[C@@H](F)Cn1ccc2cc(-c3nccs3)c(F)cc2c1=O)Nc1cn[nH]c(=O)c1C(F)(F)F` [Example 103], the EC50 is 138 nM.

Turning to `C[C@@H](CC(O)Cn1ccc2cc(-c3nc4ccccn4n3)c(F)cc2c1=O)Nc1cn[nH]c(=O)c1C(F)(F)F` (stereo partly drawn) [Example 21, 6-([1,2,4]triazolo[1,5-a]pyridin-2-yl)-7-fluoro-2-((4S)-2-hydroxy-4-((6-oxo-5-(trifluoromethyl)-1,6-dihydropyridazin-4-yl)amino)pentyl)isoquinolin-1(2H)-one], the EC50 was 13.3 nM.

On to `C[C@@H](C[C@@H](F)Cn1ccc2cc(-c3ncc(C(F)F)cn3)c(F)c(F)c2c1=O)Oc1cn[nH]c(=O)c1C(F)(F)F` [Example 50], for which the half-maximal effective concentration (EC50) stood at 0.46 nM.

`C[C@@H](C[C@H](F)Cn1cc(F)c2cc(-c3ncc(C(C)(C)O)cn3)c(F)cc2c1=O)Oc1cn[nH]c(=O)c1C(F)(F)F` [Example 66]: the EC50 was 91.6 nM.

Consider `C[C@@H](CC(F)Cn1ccc2cc(-c3ncc(C(F)(F)F)cn3)c(F)cc2c1=O)Oc1cn[nH]c(=O)c1C(F)(F)F` (stereo partly drawn) [Example 11, 7-fluoro-2-((4S)-2-fluoro-4-((6-oxo-5-(trifluoromethyl)-1,6-dihydropyridazin-4-yl)oxy)pentyl)-6-(5-(trifluoromethyl)pyrimidin-2-yl)isoquinolin-1(2H)-one], for which the EC50 was found to be 3.61 nM.

On to `C[C@@H](C[C@@H](F)Cn1cnc2cc(-c3ncc(C(F)F)c(N)n3)c(F)cc2c1=O)Nc1cn[nH]c(=O)c1C(F)(F)F` [Example 69], for which the 50% effective concentration (EC50) amounted to 19 nM.

Take `C[C@@H](C[C@@H](F)Cn1cnc2cc(-c3ncc(C(F)(F)F)cn3)c(F)cc2c1=O)Oc1cn[nH]c(=O)c1C(F)(F)F` [Example 39]: the half-maximal effective concentration (EC50) was 1.49 nM.

For the compound `C[C@@H](C[C@@H](F)Cn1ccc2cc(-c3ccc(C(F)(F)F)cn3)c(F)cc2c1=O)Nc1cn[nH]c(=O)c1C(F)(F)F` [Example 76], the EC50 is 2.59 nM.

With `C[C@@H](C[C@@H](F)Cn1ccc2cc(-c3ncc(C(C)(C)O)cn3)c(F)c(F)c2c1=O)Nc1cn[nH]c(=O)c1C(F)(F)F` [Example 28], the EC50 came to 6.51 nM.

For `C[C@@H](C[C@@H](F)Cn1ccc2cc(-c3ncc([C@](C)(O)C(F)F)cn3)c(F)cc2c1=O)Nc1cn[nH]c(=O)c1C(F)(F)F` [Example 87], the EC50 was 5.36 nM.

Regarding `COc1cnc(-c2cc3c(F)cn(C[C@@H](F)C[C@H](C)Oc4cn[nH]c(=O)c4C(F)(F)F)c(=O)c3cc2F)nc1` [Example 63], the EC50 was 2.05 nM.

Take `C[C@@H](C[C@@H](F)Cn1cc(F)c2cc(-c3ncc(C(F)F)c(N)n3)c(F)cc2c1=O)Nc1cn[nH]c(=O)c1C(F)(F)F` [Example 24, 6-(4-amino-5-(difluoromethyl)pyrimidin-2-yl)-4,7-difluoro-2-((2R,4S)-2-fluoro-4-((6-oxo-5-(trifluoromethyl)-1,6-dihydropyridazin-4-yl)amino)pentyl)isoquinolin-1(2H)-one]: the EC50 came out at 2.39 nM.

For `CC(C)(O)c1cnc(-c2cc3ccn(C[C@H](F)C[C@H](COC(F)F)Oc4cn[nH]c(=O)c4C(F)(F)F)c(=O)c3cc2F)nc1` [Example 122], the EC50 is 1.97 nM.

For the compound `C[C@@H](C[C@@H](F)Cn1ccc2cc(-c3cc4c(cn3)C(F)(F)CC4)c(F)cc2c1=O)Nc1cn[nH]c(=O)c1C(F)(F)F` [Example 91], the EC50 came to 1.69 nM.

On to `C[C@@H](CC(F)Cn1ccc2cc(-c3ncc(C(C)(C)O)cn3)c(F)cc2c1=O)Oc1cn[nH]c(=O)c1C(F)(F)F` (stereo partly shown) [Example 37], for which the EC50 worked out at 4.11 nM.

With `O=c1[nH]ncc(O[C@H](CCCn2ccc3cc(-c4ncc(C(F)(F)F)cn4)c(F)cc3c2=O)COC(F)F)c1C(F)(F)F` (single isomer, unassigned) [Example 119], the EC50 came to 16.1 nM.

`C[C@@H](C[C@H](F)Cn1ccc2cc(-c3ncc(C(F)F)cn3)c(F)cc2c1=O)Nc1cn[nH]c(=O)c1C(F)(F)F` (single isomer, unassigned) [Example 5]: the EC50 worked out at 47.6 nM.

As to `C[C@@H](C[C@@H](F)Cn1cc(F)c2cc(-c3ncc(C(F)(F)F)cn3)c(F)cc2c1=O)Nc1cn[nH]c(=O)c1C(F)(F)F` [Example 30], the EC50 turned out to be 1.54 nM.

In the case of `C[C@@H](C[C@@H](F)Cn1ccc2cc(-c3ncc(C(F)(F)F)cn3)c(F)c(F)c2c1=O)Oc1cn[nH]c(=O)c1C(F)(F)F` [Example 47], the EC50 is 0.814 nM.

Regarding `C[C@@H](C[C@@H](F)Cn1ccc2cc(-c3ncc4c(n3)COC4(C)C)c(F)cc2c1=O)Nc1cn[nH]c(=O)c1C(F)(F)F` [Example 90], the EC50 came to 4.33 nM.

As to `C[C@@H](C[C@@H](F)Cn1ccc2cc(-c3ncc([C@@H](O)C(F)F)cn3)c(F)cc2c1=O)Nc1cn[nH]c(=O)c1C(F)(F)F` [Example 80], the EC50 was found to be 7.89 nM.

`O=c1[nH]ncc(O[C@@H](CCCn2ccc3cc(-c4ncc(C(F)(F)F)cn4)c(F)cc3c2=O)COC(F)F)c1C(F)(F)F` [Example 120]: the EC50 was found to be 1000 nM.

On to `C[C@@H](C[C@H](F)Cn1cc(F)c2cc(-c3ncc(C(F)F)cn3)c(F)cc2c1=O)Oc1cn[nH]c(=O)c1C(F)(F)F` [Example 62], for which the EC50 was 1.69 nM.
